In ChEMBL document CHEMBL1135778, “Synthesis and molecular modeling of new 1-aryl-3-[4-arylpiperazin-1-yl]-1-propane derivatives with high affinity at the serotonin transporter and at 5-HT(1A) receptors” (J Med Chem, 2002):

What was measured:
[1] = molecular target: T1, 5-hydroxytryptamine receptor 1A (Rattus norvegicus) (UniProt P19327); experiment: Percent increase of R(+)-8-OH-DPAT stimulated [35S]GTP-gamma-S, binding to 5-hydroxytryptamine 1A receptor in isolated rat hippocampal membranes; type: functional, cell membranes; details: Membrane
T1 sequence (whole entry): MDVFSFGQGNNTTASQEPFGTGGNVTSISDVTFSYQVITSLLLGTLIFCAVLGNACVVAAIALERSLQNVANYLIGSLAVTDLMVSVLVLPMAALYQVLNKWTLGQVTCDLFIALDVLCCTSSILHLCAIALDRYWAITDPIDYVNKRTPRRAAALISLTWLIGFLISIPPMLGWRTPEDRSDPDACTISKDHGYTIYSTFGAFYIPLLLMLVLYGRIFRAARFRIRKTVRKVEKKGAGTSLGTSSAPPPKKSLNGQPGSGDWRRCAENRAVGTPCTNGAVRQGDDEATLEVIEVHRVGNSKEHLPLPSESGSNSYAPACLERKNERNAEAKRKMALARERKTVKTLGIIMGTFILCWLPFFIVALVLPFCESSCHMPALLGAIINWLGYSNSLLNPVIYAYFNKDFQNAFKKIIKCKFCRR

[2] = molecular target: T2, 5-hydroxytryptamine receptor 1A (Rattus norvegicus, UniProt P19327); experiment: Binding affinity towards 5-hydroxytryptamine 1A receptor in rat frontal cortex homogenates; type: tissue-based
T2 sequence (P19327 whole entry): T1 sequence (whole entry)

[3] = molecular target: T3, 5-hydroxytryptamine receptor 1A (Mus musculus) (UniProt Q64264); experiment: Antagonist activity at 5-hydroxytryptamine 1A receptor against (+)-8-OH-DPAT induced hypothermia in mice at 10 mg/kg after 15 min; type: functional, organism-based; set-up: dose 10 mg/kg
T3 sequence (whole entry): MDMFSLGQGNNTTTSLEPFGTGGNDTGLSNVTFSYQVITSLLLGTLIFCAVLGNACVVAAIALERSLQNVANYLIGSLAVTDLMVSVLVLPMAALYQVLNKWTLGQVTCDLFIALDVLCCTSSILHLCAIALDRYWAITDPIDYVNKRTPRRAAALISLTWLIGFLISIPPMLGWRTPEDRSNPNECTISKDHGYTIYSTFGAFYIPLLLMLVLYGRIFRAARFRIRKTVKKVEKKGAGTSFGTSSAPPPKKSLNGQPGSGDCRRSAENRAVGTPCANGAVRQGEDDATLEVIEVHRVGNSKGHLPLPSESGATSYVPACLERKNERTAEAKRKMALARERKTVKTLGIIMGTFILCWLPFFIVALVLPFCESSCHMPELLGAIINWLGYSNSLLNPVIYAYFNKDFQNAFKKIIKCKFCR

[4] = molecular target: T3, 5-hydroxytryptamine receptor 1A (Mus musculus); experiment: Antagonist activity at 5-hydroxytryptamine 1A receptor against (+)-8-OH-DPAT induced hypothermia in mice at 10 mg/kg after 60 min; type: functional, organism-based; set-up: dose 10 mg/kg
[5] = molecular target: T3, 5-hydroxytryptamine receptor 1A (Mus musculus); experiment: Antagonist activity at 5-hydroxytryptamine 1A receptor against (+)-8-OH-DPAT induced hypothermia in mice at 1 mg/kg after 15 min; type: functional, organism-based; set-up: dose 1 mg/kg
[6] = molecular target: T3, 5-hydroxytryptamine receptor 1A (Mus musculus); experiment: Antagonist activity at 5-hydroxytryptamine 1A receptor against (+)-8-OH-DPAT induced hypothermia in mice at 1 mg/kg after 30 min; type: functional, organism-based; set-up: dose 1 mg/kg
[7] = molecular target: T3, 5-hydroxytryptamine receptor 1A (Mus musculus); experiment: Antagonist activity at 5-hydroxytryptamine 1A receptor against (+)-8-OH-DPAT induced hypothermia in mice at 1 mg/kg after 60 min; type: functional, organism-based; set-up: dose 1 mg/kg
[8] = molecular target: T1, 5-hydroxytryptamine receptor 1A (Rattus norvegicus); experiment: Antagonist activity to stimulate binding of [35S]GTP-gamma-S, to 5-hydroxytryptamine 1A receptor in isolated rat hippocampal membranes; type: functional, cell membranes; details: Membrane, scale: (fM of GTP-gammaS bound)
[9] = molecular target: T1, 5-hydroxytryptamine receptor 1A (Rattus norvegicus); experiment: Inhibition of (+)-8-OH-DPAT stimulated [35S]GTP-gamma-S, binding in rat hippocampal membranes; type: functional, cell membranes; details: Hippocampus, Membrane, scale: (fM of GTP-gammaS bound)
[10] = molecular target: T1, 5-hydroxytryptamine receptor 1A (Rattus norvegicus); experiment: Antagonist activity to stimulate binding of [35S]-GTP-gamma S binding to 5-hydroxytryptamine 1A receptor in isolated rat hippocampal membranes; type: functional, cell membranes; details: Membrane, scale: (fM of GTP-gammaS bound)
[11] = molecular target: Sodium-dependent serotonin transporter (Rattus norvegicus, UniProt P31652); experiment: Binding affinity towards Serotonin transporter (5-HTT) in rat frontal cortex homogenates; type: tissue-based
Sequence of Sodium-dependent serotonin transporter (P31652 whole entry): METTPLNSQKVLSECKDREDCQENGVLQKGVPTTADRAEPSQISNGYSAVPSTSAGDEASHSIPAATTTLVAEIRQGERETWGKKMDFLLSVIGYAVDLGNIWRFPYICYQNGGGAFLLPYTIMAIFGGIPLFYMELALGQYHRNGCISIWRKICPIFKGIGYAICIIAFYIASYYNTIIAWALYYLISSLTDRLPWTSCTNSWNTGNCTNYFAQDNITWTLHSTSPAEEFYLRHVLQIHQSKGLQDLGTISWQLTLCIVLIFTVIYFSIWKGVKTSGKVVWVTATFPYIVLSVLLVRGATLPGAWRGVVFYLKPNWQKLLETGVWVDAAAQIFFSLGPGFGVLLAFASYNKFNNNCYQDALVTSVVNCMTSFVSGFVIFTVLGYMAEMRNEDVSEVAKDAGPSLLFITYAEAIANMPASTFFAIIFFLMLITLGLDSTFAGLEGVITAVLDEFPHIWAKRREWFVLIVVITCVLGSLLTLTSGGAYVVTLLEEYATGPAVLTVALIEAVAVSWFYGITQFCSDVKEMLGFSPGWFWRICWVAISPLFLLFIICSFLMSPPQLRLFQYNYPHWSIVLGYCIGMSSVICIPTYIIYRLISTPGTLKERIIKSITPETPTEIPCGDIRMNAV

[12] = molecular target: T3, 5-hydroxytryptamine receptor 1A (Mus musculus); experiment: Antagonist activity at 5-hydroxytryptamine 1A receptor against (+)-8-OH-DPAT induced hypothermia in mice at 10 mg/kg after 30 min; type: functional, organism-based; set-up: dose 10 mg/kg
[13] = molecular target: T2, 5-hydroxytryptamine receptor 1A; experiment: Inhibition of (+)-8-OH-DPAT stimulated [35S]GTP-gamma-S, binding to 5-hydroxytryptamine 1A receptor in hippocampal membranes; type: functional, cell membranes
[14] = molecular target: T1, 5-hydroxytryptamine receptor 1A (Rattus norvegicus); experiment: Percent inhibition of (+)-8-OH-DPAT stimulated [35S]GTP-gamma-S, binding to 5-hydroxytryptamine 1A receptor in hippocampal membranes; type: functional, cell membranes; set-up: concentration or dose not given beside the values; details: concentration not given here

| SMILES | Increase [1] [%] | Ki ([2]; read-out: Ki) [nM] | Change in body temperature [3] [°C] | Change in body temperature [4] [°C] | Change in body temperature [5] [°C] | Change in body temperature [6] [°C] | Change in body temperature [7] [°C] | Basal [8] | Basal [9] | Max [9] | Max [10] | Ki [11] [nM] | Change in body temperature [12] [°C] | IC50 [13] [nM] | inhibition [14] [%] | Ki [2] [nM] |
| --- | --- | --- | --- | --- | --- | --- | --- | --- | --- | --- | --- | --- | --- | --- | --- | --- |
| OC(CCN1CCN(c2cccc3c2OCCO3)CC1)c1csc2ccccc12 (stereo not given) | 3.4 | 5.7 | -1.38 | -0.5 | -2.9 | -2.47 | -1.94 | 15.6 | 18.5 | 19.1 | 16.1 | 50 | -1.03 | 56.2 | 90 | – |
| OC(CCN1CCN(c2cccc3ccccc23)CC1)c1csc2ccc(F)cc12 (stereo not given) | – | – | – | – | – | – | – | – | – | – | – | 6 | – | – | – | – |
| OC(CCN1CCN(c2cccc3c2OCCO3)CC1)c1csc2ccc(F)cc12 (stereo not given) | 17.9 | – | -1.33 | -0.84 | -1.49 | -1.04 | -1.04 | 11.9 | 19.1 | 18.9 | 14 | 16 | -0.72 | 31.2 | 101 | – |
| OC(CCN1CCN(c2cccc3cccnc23)CC1)c1csc2ccc(F)cc12 (stereo not given) | 71.4 | – | – | – | – | – | – | 13.9 | – | – | 23.9 | – | – | – | – | – |
| OC(CCN1CCN(c2cnc3ccccc3c2)CC1)c1csc2ccccc12 (stereo not given) | – | 995 | – | – | – | – | – | – | – | – | – | 4.2 | – | – | – | – |
| OC(CCN1CCN(c2cccc3c2OCO3)CC1)c1csc2ccc(F)cc12 (stereo not given) | – | 9.4 | – | – | – | – | – | – | – | – | – | 58 | – | – | – | – |
| OC(CCN1CCN(c2cccc3ncccc23)CC1)c1csc2ccccc12 (stereo not given) | – | 36.8 | – | – | – | – | – | – | – | – | – | 32.5 | – | – | – | – |
| CCCN(CCC)C1CCc2cccc(O)c2C1 (stereo not given) | 91.8 | – | – | – | – | – | – | 13.5 | 13 | 23.8 | 25.9 | – | – | – | – | – |
| OC(CCN1CCN(c2cccc3[nH]ccc23)CC1)c1csc2ccccc12 (stereo not given) | 26.3 | – | -1.03 | -0.8 | -2.08 | -1.59 | -1.13 | 13.4 | 12.8 | 13.9 | 16.9 | – | 0.84 | 31.2 | 90 | – |
| OC(CCN1CCN(c2cccc3c2OCCCO3)CC1)c1csc2ccc(F)cc12 (stereo not given) | 22.8 | 3 | – | – | – | – | – | 14.4 | 18.7 | 20.4 | 17.7 | 21.2 | – | 360 | 84 | – |
| OC(CCN1CCN(c2ccc3sccc3c2)CC1)c1csc2ccccc12 (stereo not given) | – | 913 | – | – | – | – | – | – | – | – | – | 3.2 | – | – | – | – |
| OC(CCN1CCN(c2cccc3ccccc23)CC1)c1csc2ccccc12 (stereo not given) | – | 66.7 | – | – | – | – | – | – | – | – | – | 81.7 | – | – | – | – |
| OC(CCN1CCN(c2cccc3cccnc23)CC1)c1csc2ccccc12 (stereo not given) | 31 | 6.3 | -0.8 | -0.2 | -2.38 | -1.86 | -1.09 | 11.9 | 16.4 | 19.7 | 15.6 | 24 | -0.52 | 18 | 69 | – |
| OC(CCN1CCN(c2cccc3c2OCCCO3)CC1)c1csc2ccccc12 (stereo not given) | – | – | – | – | – | – | – | – | – | – | – | 77 | – | – | – | 1.9 |
| OC(CCN1CCN(c2cccc3[nH]ccc23)CC1)c1csc2ccc(F)cc12 (stereo not given) | 35.5 | – | -0.95 | -0.95 | -3.28 | -3.61 | -2.72 | 10.1 | 11.2 | 10.1 | 13.7 | – | -0.89 | 16.1 | 110 | – |
